What all share (test): Microdilution assay, MIC determination (CLSI M07-A9)
Holding throughout (type): cell-based
A general note: In broth dilution the organism is exposed to a series of concentrations in liquid medium.

Assay [1] relates to B. subtilis DSM10. Particulars: Bacillus subtilis; B. subtilis DSM10; 37° C., 20 h, MHBII media; read-out: MIC. How it is done:
(§1) E. coli DSM 1116; E. coli BW25113; S. typhimurium TA100; Bacillus subtilis DSM10; M. phlei DSM750 and Micrococcus luteus DSM1790
(§2) The tests were performed using the micro dilution method.
(§3) The determination of MIC values was performed according to the ninth edition of the Approved Standard M07-A9 (CLSI. Methods for Dilution Antimicrobial Susceptibility Tests for Bacteria That Grow Aerobically; Approved Standard-Ninth Edition. CLSI document M07-A9. Wayne, Pa.: Clinical and Laboratory Standards Institute; 2012.)
(§4) The test was carried out for the six different bacterial strains 20 μL of cryo stock of each strain were inoculated in 20 mL of LB media (Lysogeny broth: 10 g/L peptone, 5 g/L yeast extract, 5 g/L NaCl) followed by incubation over night at 37° C., 200 rpm. The test inoculum was adjusted by the 0.5 McFarland Standard (OD625 from 0.08 to 0.1). Within 15 min of preparation, the adjusted inoculum suspension was diluted in MHBII media (BBL™ Mueller-Hinton Broth II, Becton, Dickinson and Company, New Jersey/USA) so that each well contained approximately 5×10^5 CFU/mL in a final volume of 100 μL. 95 μL of the inoculum were applied per well and 5 μL of the (diluted) antibiotic substance were added.
(§5) Previously the dry antibiotic compounds were dissolved in DMSO (100%) with a concentration of 2560 μg/mL and the resulting stock solutions were further diluted in DMSO (100%). 5 μL of each antibiotic dilution were applied to the microdilution tray to reach final concentrations of 64 μg/mL to 0.008 μg/mL. One row of each well plate was left as a growth control without antibiotic substances and another row of the microdilution tray was used as sterility control (only MHB II-media). The antimicrobial effect of the solvent (DMSO) was tested by adding 5 μL DMSO to several wells without antibiotics.
(§6) Purity check and cell titer control were performed according to International Standard M07-A9 on Mueller-Hinton II Agar (Mueller Hinton II Broth, 15 g/L agar-agar).
(§7) Both microdilution trays and agar plates were incubated at 37° C. for 20 h and subsequently analyzed visually.

The subject of assay [2] is S. typhimurium TA100. Particulars: Salmonella enterica, 20 h. As to the method: as §1, §2, §3, §4, §5, §6, §7
The test system of assay [3] is E. coli BW25113. The following applies: Escherichia coli. How it is done: as §1, §2, §3, §4, §5, §6, §7
The subject of assay [4] is E. coli DSM1116. The following applies: Escherichia coli. How it is done: as §1, §2, §3, §4, §5, §6, §7
In assay [5] the test system is M. phlei DSM750. Particulars: Mycolicibacterium phlei; M. phlei DSM750; 37° C., 20 h, MHBII media; read-out: MIC. How it is done:
as §1, §2, §3, §4, §5, §6, §7

The test system of assay [6] is M. luteus DSM1790. The following applies: Micrococcus luteus; M. luteus DSM1790; 37° C., 20 h, MHBII media; read-out: MIC. As to the method:
as §1, §2, §3, §4, §5, §6, §7

Setting [7] is: S. typhimurium TA100, 37° C., MHBII media, read-out: MIC.
The mark [8] stands for this setting: E. coli BW25113, 37° C., 20 h, MHBII media, read-out: MIC.
Where [9] appears, read: E. coli DSM1116, 37° C., 20 h, MHBII media, read-out: MIC.

Values after ≈ are worked out from the molar mass of the structure shown. Like-named read-outs stand apart in the source and are kept apart here.

Broadly, the MIC is the smallest concentration in the dilution series that meets the test's criterion for growth inhibition.

`CC(C)Oc1c(NC(=O)c2ccc(NC(=O)[C@H](Cc3c[nH]nn3)NC(=O)c3ccc(NC(=O)c4ccc(C#N)cc4)cn3)cn2)ccc(C(=O)Nc2ccc(C(=O)O)cc2)c1O` [Compound 18]: the minimal inhibitory concentration (MIC) in assay [1] was at most 16 µg/mL; in assay [2] (setting [7]), at most 16 µg/mL; in assay [3] (setting [8]), at most 16 µg/mL; in assay [4] (setting [9]), 31 µg/mL (≈ 37 µM); in assay [5], 31 µg/mL (≈ 37 µM); in assay [6], at most 16 µg/mL.
Turning to `COc1nc(C(=O)Nc2ccc(C(=O)O)nc2OC)ccc1NC(=O)c1ccc(NC(=O)[C@H](Cc2c[nH]nn2)NC(=O)c2ccc(NC(=O)/C(C)=C/c3ccc(O)cc3)cc2)cc1` [Compound 19], the MIC in assay [1] amounted to 4000 µg/mL (≈ 4680 µM); in assay [2] (setting [7]), 500 µg/mL (≈ 585 µM); in assay [3] (setting [8]), 1000 µg/mL (≈ 1170 µM); in assay [4] (setting [9]), 500 µg/mL (≈ 585 µM); in assay [5], 8000 µg/mL (≈ 9360 µM); in assay [6] it was 2000 µg/mL (≈ 2340 µM).
As to `COc1c(NC(=O)c2ccc(NC(=O)[C@H](Cc3c[nH]nn3)NC(=O)c3ccc(NC(=O)/C(C)=C/c4ccc(O)cc4)cc3)cc2)ccc(C(=O)Nc2ccc(C(=O)O)nc2)c1O` [Compound 20], the minimal inhibitory concentration (MIC) is at least 8000 µg/mL in assay [1]; 125 µg/mL (≈ 149 µM) in assay [2] (TYPHIMURIUM); above 8000 µg/mL in assay [3] (setting [8]); above 8000 µg/mL in assay [4] (setting [9]); at least 8000 µg/mL in assay [5]; at least 8000 µg/mL in assay [6].
As for `COc1c(NC(=O)c2ccc(NC(=O)[C@H](Cc3c[nH]nn3)NC(=O)c3ccc(NC(=O)/C(C)=C/c4ccc(O)cc4)cc3)cc2)ccc(C(=O)Nc2ccc(C(=O)O)cn2)c1O` [Compound 21], the MIC worked out at 4000 µg/mL (≈ 4760 µM) in assay [1]; 16 µg/mL (≈ 19.1 µM) in assay [2] (setting [7]); 125 µg/mL (≈ 149 µM) in assay [3] (BW25113, 20 h); 125 µg/mL (≈ 149 µM) in assay [4] (DSM1116, 20 h); 4000 µg/mL (≈ 4760 µM) in assay [5]; 4000 µg/mL (≈ 4760 µM) in assay [6].
